Earlier results on six molecules are cited in patent US7148007B2, “Method for evaluating immunotoxicity of test substance” (priority 2001, dated 2006).

For this data set the following is noted: toxicity level based on that of 2,3,7,8-TCDD being 1; WHO 1998 TEF scheme.

Take `Clc1cc2c(cc1Cl)Oc1cc(Cl)c(Cl)cc1O2` [2,3,7,8-TCDD, 2,3,7,8-Tetraorodibenzo-p-dioxin]: the WHO-TEF is given as 1.
`Clc1cc2c(c(Cl)c1Cl)Oc1cc(Cl)c(Cl)c(Cl)c1O2` [1,2,3,6,7,8-HxCDD]: the WHO-TEF was 0.1.
Consider `Clc1cc2c(cc1Cl)Oc1c(cc(Cl)c(Cl)c1Cl)O2` [1,2,3,7,8-PeCDD, 1,2,3,7,8-Pentachlorodibnzo-p-dioxin], for which the WHO-TEF was 1.
`Clc1cc2c(cc1Cl)Oc1c(Cl)c(Cl)c(Cl)c(Cl)c1O2` [1,2,3,4,7,8-HxCDD, 1,2,3,4,7,8-Hexachlorodibenzo-p-dioxin]: the WHO-TEF is 0.1.
Regarding `Clc1cc2c(c(Cl)c1Cl)Oc1c(cc(Cl)c(Cl)c1Cl)O2` [1,2,3,7,8,9-HxCDD, 1,2,3,7,8,9-Hexachlorodibenzo-p-dioxin], the WHO-TEF is 0.1.
In the case of `Clc1c(Cl)c(Cl)c2c(c1Cl)Oc1c(Cl)c(Cl)c(Cl)c(Cl)c1O2` [OCDD, 1,2,3,4,5,6,7,8,9-Octachlorodibenzo-p-dioxin], the WHO-TEF is given as 0.0001.
